Measured values taken from patent US6909023B2, “Production method for benzenedimethanol compound” (Showa Denko K.K., priority 2000, dated 2005).

Assay: solubility in water at room temperature

SMILES: OCc1c(F)c(F)c(CO)c(F)c1F [2,3,5,6-tetrafluorobenzenedimethanol]
- solubility in water: about 25 g/L
